This note sets out measurements from patent US20240293424A1, “CARNITINE-PALMITOYL-TRANSFERASE-1 (CPT-1) INHIBITORS FOR USE IN A METHOD OF PREVENTING OR TREATING SEPSIS IN A MAMMALIAN SUBJECT” (2N PHARMA APS, priority 2021, published 2024).

One may read the IC50 as the concentration needed to halve the response being measured.

The subject of one experiment is HEK293 cells. The experiment is described as follows: Fatty acid uptake assay using HEK293 cells. It is filed as cell-based. Conditions: Homo sapiens, racemic mixture, FIG. 1. The procedure: HEK293 cells were thawed and centrifuged at 400 g in 1 min, whereafter the supernatant was discarded. The cells were resuspended in DMEM+GlutaMax medium (cat #10566016, Invitrogen) containing 10% fetal calf serum (cat #10270-106, Invitrogen) and 1% penicillin/streptomycin (cat #15140-122, Life Technologies). HEK293 cells were seeded into a T25 flask and incubated at 37 degrees Celsius until 80% confluency. When the HEK293 cells reached confluency, cells were counted and seeded in a 96-well plate and with a volume of 10.000 cells/well in medium (as described above) and incubated overnight. Three wells were without cells serving as controls.
The cells were divided into two groups: 1) Example 1, and 2) Untreated. The fatty acid uptake assay (cat #408-100, BioVision) was carried out according to the protocol from BioVision. The only exception to the protocol was that the measurements in the PerkinElmer Multimode Plate Reader Enspire instrument was running overnight.
Statistics was performed in GraphPad Prism version 8.0. Repeated measure two-way ANOVA were conducted as the groups were tested multiple times followed by a multiple comparison Bonferroni post hoc test.

The test system of experiment [1] is CLP-induced mouse model of sepsis. Put plainly: Cecal ligation and puncture (CLP)-induced mouse model of sepsis. The experiment is classed as in vivo. Conditions: CLP mice, 5 mg/kg p.o. 1 h after onset of CLP, assessed 24 h after CLP. The text has this:
This study was be carried out on 10-week old, male C57BL/6 mice (n=5-10 per group) (Charles River Laboratories UK Ltd., Kent, UK) weighing 20-30 g kept under standard laboratory conditions. The animals were allowed to acclimatise to laboratory conditions for at least one week before undergoing experiments. Six mice were housed together in ventilated cages lined with absorbent bedding material. Tubes and chewing blocks were placed in all cages for environmental enrichment. All animals were subjected to 12-h light and dark cycles and the temperature was maintained at 19-23° C. All animals had access to a chow diet and water ad libitum. The cages were cleaned approximately every three days, with water being changed daily. […]
Ten-week-old, male C57BL/6 mice were injected with buprenorphine (0.05 mg/kg, i.p.). […] Temperature was monitored via a rectal probe and kept at 37° C. by a homeothermic mat. […] After 24 h, cardiac function was assessed by echocardiography in vivo. […] The organs (heart, lungs, liver, kidney, spleen) and blood was collected for further analysis to quantify organ injury/dysfunction. […]
Cardiac function in mice was assessed by echocardiography in vivo by means of the Vevo 3100 imaging system (VisualSonics, Toronto, Ontario, Canada). […] During echocardiography, the heart rate was recorded, and a rectal thermometer was recorded to measure core body temperature. […]

Structures are written as SMILES.

On to `CC(=O)N1CCC(c2nc(-c3ccncc3)cs2)N(C(=O)COc2ccccc2)CC1` (single isomer, unassigned) [Example 1, 1-(4-acetyl-7-(4-(pyridin-4-yl)thiazol-2-yl)-1,4-diazepan-1-yl)-2-phenoxyethan-1-one], for which the IC50 in the experiment with HEK293 cells stood at 300 nM. Also, the heart rate result in experiment [1] (FIG. 2A) is reported as “maintained”. Moreover, the pulmonary artery flow result in experiment [1] (FIG. 2G) was “maintained”.
